Patent US6043254A, “Indolinones having kinase-inhibiting activity” (Boehringer Ingelheim Pharma KG, priority 1998, dated 2000)

How the values were obtained:
[1] = tested on: SK-UT-1B cells (Leimyosarcoma tumour cell line); test: Test 2: inhibition of the proliferation of cultivated human tumour cells (14C-thymidine incorporation); assay type: cell-based; conditions: Skut1B, 48 hours' incubation, then 14C-thymidine for a further 24 hours, read-out: Inhibiting the proliferation of SKUT-1B cells: IC50
Description: Inhibition of the Proliferation of Cultivated Human Tumour Cells
Cells of the Leimyosarcoma tumour cell line SK-UT-1B (obtained from the American Type Culture Collection (ATCC)) were cultivated in Minimum Essential Medium with non-essential amino acids (Gibco), supplemented with sodium pyruvate (1 mmol), glutamine (2 mmol) and 10% foetal calf serum (Gibco) and harvested during the log-growth phase. Then the SK-UT-1B cells were added to Cytostar® multi-well plates (Amersham) at a density of 4000 cells per well and incubated overnight in an incubator. Various concentrations of the compounds (dissolved in DMSO; final concentration: <1%) were added to the cells. After 48 hours' incubation ^14 C-thymidine (Amersham) was added to each well and incubation was continued for a further 24 hours. The quantity of ^14 C-thymidine incorporated into the tumour cells in the presence of the inhibitor and representing the number of cells in the S phase was measured in a Wallace 1450 Microbeta Liquid Scintillation Counter. IC50 values for the inhibition of proliferation (=inhibition of incorporated ^14 C-thymidine) were calculated, correcting for the background radiation. All the measurements were done twice.

cycline D1/CDK4 = target: T1, cycline D1/CDK4 (Homo sapiens, UniProt P11802); test: Test 1: inhibition of cycline/CDK enzyme in vitro activity; assay type: biochemical; conditions: GST-tagged pRB substrate; 45 minutes at 30° C.; 1% DMSO
T1 construct: His6; made in house; host or cells: High Five insect cells (BTI-TN-5B1-4), recombinant baculovirus with two promoters
T1 sequence (P11802 whole entry): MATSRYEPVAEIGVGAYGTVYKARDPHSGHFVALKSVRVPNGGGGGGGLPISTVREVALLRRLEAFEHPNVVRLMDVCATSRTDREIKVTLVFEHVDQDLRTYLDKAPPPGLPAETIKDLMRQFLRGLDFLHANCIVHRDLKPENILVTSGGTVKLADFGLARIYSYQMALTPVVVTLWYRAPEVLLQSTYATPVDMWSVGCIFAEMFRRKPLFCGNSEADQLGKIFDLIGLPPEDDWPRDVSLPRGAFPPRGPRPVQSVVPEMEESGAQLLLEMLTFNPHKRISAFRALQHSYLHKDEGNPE
T1 sequence (P24385 whole entry partner): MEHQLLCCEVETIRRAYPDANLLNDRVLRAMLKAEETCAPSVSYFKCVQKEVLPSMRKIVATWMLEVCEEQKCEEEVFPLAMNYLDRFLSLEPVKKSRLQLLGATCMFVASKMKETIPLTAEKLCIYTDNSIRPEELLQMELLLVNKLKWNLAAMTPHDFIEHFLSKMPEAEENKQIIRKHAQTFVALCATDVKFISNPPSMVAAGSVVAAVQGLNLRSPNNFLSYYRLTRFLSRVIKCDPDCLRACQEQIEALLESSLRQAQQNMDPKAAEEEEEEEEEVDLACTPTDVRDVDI
Excerpt: Inhibition of cycline/CDK Enzyme in vitro Activity
High Five™ insect cells (BTI-TN-5B1-4) which had been infected with a high titre of recombinant baculovirus were used to produce active human cycline/CDK holoenzymes. By using a baculovirus vector which contained two promoters (polyhedrin enhancer promoter, P10 enhancer promoter), GST-tagged cyclines (e.g. cycline D1 or cycline D3) with the corresponding His6 -tagged CDK subunit (e.g. for CDK4 or CDK6) were expressed in the same cell. The active holoenzyme was isolated by affinity chromatography on glutathione sepharose. Recombinant GST-tagged pRB (aa 379-928) was produced in E. coli and purified by affinity chromatography on glutathione sepharose.
The substrates used for the kinase assays depended on the specific kinases. Iistone H1 (Sigma) was used as the substrate for cycline E/CDK2, cycline A/CDK2, cycline B/CDK1 and for v-cycline/CDK6. GST-tagged pRB (aa 379-928) was used as substrate for cycline D1/CDK4, cycline D3/CDK4, cycline D1/CDK6 and for cycline D3/CDK6.
Lysates of the insect cells infected with recombinant baculovirus or recombinant kinases (obtained from the lysates by purification) were incubated together with radiolabelled ATP in the presence of a suitable substrate with various concentrations of the inhibitor in a 1% DMSO solution (dimethyl sulphoxide) for 45 minutes at 30° C. The substrate proteins with associated radioactivity were precipitated with 5% TCA (trichloroacetic acid) in water-repellent PVDF multi-well microtitre plates (Millipore) or with 0.5% phosphoric acid solution on Whatman P81 filters. After the addition of scintillation liquid the radioactivity was measured in a Wallace 1450 Microbeta Liquid Scintillation Counter. For each concentration of the substance double measurements were carried out; IC50 values were calculated for the enzyme inhibition.

[2] = tested on: tumour (SK-UT-1B, or non-small cell lung tumour NCI-H460); test: Test 3: in vivo effects on tumour-bearing nude mice; parameters: species or system nude mice (NMRI nu/nu); conditions: 100 mg/kg p.o. once a day for two weeks; male nude mice (n=9); significant, p<0.05
Description: In vivo Effects on Tumour-bearing Nude Mice
10^6 cells [SK-UT-1B, or non-small cell lung tumour NCI-H460 (obtained from ATCC)] in a volume of 0.1 ml were injected subcutaneously into male and/or female nude mice (NMRI nu/nu; 25-35 g; N=10-20); alternatively, small fragments of SK-UT-1B or NCI-H460 cell clumps were implanted subcutaneously. One to three weeks after the injection or implantation a kinase inhibitor was administered daily by oral route for a period of 2 to 4 weeks (by oesophageal tube). The size of the tumour was measured three times a week using a digital sliding gauge. The effect of a kinase inhibitor on the tumour growth was determined as a percentage inhibition compared with a control group treated with placebo.

Compound	IC50 [1]	IC50 (cycline D1/CDK4)	reduction in the tumour size [2]
Cn1ccnc1-c1ccc(N/C(=C2\C(=O)Nc3ccc([N+](=O)[O-])cc32)c2ccccc2)cc1 [Example 3.12, 3-{(Z)-1-[4-(1-methyl-1H-imidazol-2-yl)anilino]-1-phenylmethylidene}-5-nitro-2-indolinone]	400 nM		
O=C1Nc2ccc([N+](=O)[O-])cc2/C1=C(/Nc1ccc(CN2C(=O)CCC2=O)cc1)c1ccccc1 [Example 4.11, 3{(Z)-1-[4-((2,5-dioxo-pyrrolidin-1-yl)methyl)anilino]-1-phenylmethylidene}-5-nitro-2-indolinone]	530 nM		
O=C1Nc2ccccc2/C1=C(/Nc1ccc(-c2cn3cccnc3n2)cc1)c1ccccc1 [Example 8.3, 3-{(Z)-1-[4-(imidazo[1,2-a]pyrimidin-2-yl)anilino]-1-phenylmethylidene}-2-indolinone]	1300 nM		
O=C1Nc2ccc([N+](=O)[O-])cc2/C1=C(/Nc1ccc(CCN2CCCC2)cc1)c1ccccc1 [Example 4.9, 3-{(Z)-1-[4-(2-(pyrrolidin-1-yl)ethyl)anilino]-1-phenylmethylidene}-5-nitro-2-indolin]		55 nM	
O=C1Nc2ccc([N+](=O)[O-])cc2/C1=C(/Nc1ccc2c(c1)CCNC2)c1ccccc1 [Example 14.1, 3-{(Z)-1-[(1,2,3,4-tetrahydro-isoquinolin-6-yl)amino]-1-phenylmethylidene}-5-nitro-2-indolinone]		150 nM	
CC(=O)N1CCc2cc(N/C(=C3\C(=O)Nc4ccc([N+](=O)[O-])cc43)c3ccccc3)ccc2C1 [Example 18.2, 3-{(Z)-1-[(2-acetyl-1,2,3,4-tetrahydro-isoquinolin-6-yl)-amino]-1-phenylmethylidene}-5-nitro-2-indolinone]		1400 nM	
O=C1Nc2ccc([N+](=O)[O-])cc2/C1=C(/Nc1ccc(CN2CCCC2)cc1)c1ccccc1 [Example 3.18, 3-{(Z)-1-[4-((pyrrolidin-1-yl)methyl)anilino]-1-phenylmethylidene}-5-nitro-2-indolinone]	220 nM		
O=C1Nc2ccc([N+](=O)[O-])cc2/C1=C(/Nc1ccc(-c2c[nH]cn2)cc1)c1ccccc1 [Example 2.5]	340 nM	1000 nM	around 65%
